Biological target: T1, recombinant human SAE enzyme (Homo sapiens, UniProt Q9UBT2)
T1 sequence (Q9UBT2 1-640): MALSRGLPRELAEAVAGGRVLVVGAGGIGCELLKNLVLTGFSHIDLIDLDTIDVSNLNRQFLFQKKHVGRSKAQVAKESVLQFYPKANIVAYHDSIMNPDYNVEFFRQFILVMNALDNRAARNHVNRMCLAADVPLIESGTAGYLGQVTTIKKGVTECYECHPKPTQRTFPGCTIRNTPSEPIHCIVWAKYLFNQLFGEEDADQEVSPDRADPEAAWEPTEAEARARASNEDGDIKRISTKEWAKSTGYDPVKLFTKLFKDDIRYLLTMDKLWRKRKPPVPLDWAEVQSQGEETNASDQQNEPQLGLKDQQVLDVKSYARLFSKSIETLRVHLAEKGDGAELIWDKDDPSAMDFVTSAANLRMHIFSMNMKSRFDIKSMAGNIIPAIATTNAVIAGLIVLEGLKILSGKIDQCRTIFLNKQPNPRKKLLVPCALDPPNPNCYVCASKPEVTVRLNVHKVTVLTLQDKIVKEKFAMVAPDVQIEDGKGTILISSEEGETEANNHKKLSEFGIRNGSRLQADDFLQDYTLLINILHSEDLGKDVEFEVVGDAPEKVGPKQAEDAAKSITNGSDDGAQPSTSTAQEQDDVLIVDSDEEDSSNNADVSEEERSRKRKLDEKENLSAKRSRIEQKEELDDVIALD
T1 sequence (Q9UBE0 1-346 partner): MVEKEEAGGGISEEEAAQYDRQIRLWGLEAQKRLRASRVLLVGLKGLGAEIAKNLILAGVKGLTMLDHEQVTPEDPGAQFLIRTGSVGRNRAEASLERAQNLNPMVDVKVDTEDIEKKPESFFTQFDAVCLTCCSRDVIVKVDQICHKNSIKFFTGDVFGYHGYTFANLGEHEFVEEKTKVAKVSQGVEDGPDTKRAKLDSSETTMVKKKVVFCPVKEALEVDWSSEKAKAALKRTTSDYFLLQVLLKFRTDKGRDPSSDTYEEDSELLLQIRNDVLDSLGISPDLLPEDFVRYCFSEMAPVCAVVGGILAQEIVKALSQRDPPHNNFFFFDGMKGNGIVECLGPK
Test: SAE HTRF Enzyme Assay
Format: biochemical
Settings: for IC50: class symbols A-C; for inhibition at 0.111 µM: read-out: Percent Inhibition
How it was run: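 Reaction with 0.11 nM recombinant human SAE, 0.5 μM ATP, 0.01 μM Ubc9-GST, 0.125 μM Sumo-Flag in HEPES pH 7.5, MgCl2, GSH, BSA, 105 min at 24 °C. Stopped with EDTA/KF buffer carrying Eu-anti-Flag and anti-GST-APC; HTRF read after 2 h; % inhibition or IC50.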

[1] = compound concentration 0.111 μM

SMILES | IC50 [nM] | inhibition at 0.111 µM [1] [%] | Percent Inhibition (compound concentration 0.111 μM, 0.111 µM) [%]
NS(=O)(=O)OC[C@H]1C[C@@H](Nc2ncncc2C(=O)c2ccn(CC3CCOCC3)c2)[C@@H](F)[C@@H]1O [Compound I-222, {(1R,2R,3R,4R)-3-fluoro-2-hydroxy-4-[(5-{[1-(tetrahydro-2H-pyran-4-ylmethyl)-1H-pyrrol-3-yl]carbonyl}pyrimidin-4-yl)amino]cyclopentyl}methyl sulfamate] | 10 to 100 | 63 | –
Cc1ccnc(Cn2ccc(C(=O)c3cncnc3N[C@@H]3C[C@H](COS(N)(=O)=O)[C@@H](O)[C@H]3O)n2)c1 [Compound I-51, [(1R,2R,3S,4R)-2,3-dihydroxy-4-{[5-({1-[(4-methylpyridin-2-yl)methyl]-1H-pyrazol-3-yl}carbonyl)pyrimidin-4-yl]amino}cyclopentyl]methyl sulfamate] | < 10 | 100 | –
NS(=O)(=O)OC[C@H]1C[C@@H](Nc2ncncc2C(=O)c2ccn(Cc3ccncc3)n2)[C@H](O)[C@@H]1O [Compound I-160, {(1R,2R,3S,4R)-2,3-dihydroxy-4-[(5-{[1-(pyridin-4-ylmethyl)-1H-pyrazol-3-yl]carbonyl}pyrimidin-4-yl)amino]cyclopentyl}methyl sulfamate] | 10 to 100 | 81 | –
CC(C)(O)c1cccc(Cn2ccc(C(=O)c3cncnc3N[C@@H]3C[C@H](COS(N)(=O)=O)[C@@H](O)C3)n2)c1 [Compound I-60, [(1R,2S,4R)-2-hydroxy-4-{[5-({1-[3-(2-hydroxypropan-2-yl)benzyl]-1H-pyrazol-3-yl}carbonyl)pyrimidin-4-yl]amino}cyclopentyl]methyl sulfamate] | 10 to 100 | 91 | –
Cc1cc(C(=O)c2cncnc2N[C@@H]2C[C@H](COS(N)(=O)=O)[C@@H](O)[C@H]2O)nn1Cc1ccc(C(F)(F)F)o1 [Compound I-138, [(1R,2R,3S,4R)-2,3-Dihydroxy-4-({5-[(5-methyl-1-{[5-(trifluoromethyl)-2-furyl]methyl}-1H-pyrazol-3-yl)carbonyl]pyrimidin-4-yl}amino)cyclopentyl]methyl sulfamate] | < 10 | 99 | –
NS(=O)(=O)OC[C@H]1C[C@@H](Nc2ncncc2C(=O)c2ccn(Cc3cccc(C(F)(F)F)c3)c2)[C@@H](F)[C@@H]1O [Compound I-7, [(1R,2R,3R,4R)-3-fluoro-2-hydroxy-4-{[5-({1-[3-(trifluoromethyl)benzyl]-lH-pyrrol-3-yl}carbonyl)pyrimidin-4-yl]amino}cyclopentyl]methyl sulfamate] | < 10 | 99 | –
NS(=O)(=O)OC[C@H]1C[C@@H](Nc2ncncc2C(=O)c2ccn(Cc3ccc(Cl)c(Br)c3)c2)C[C@@H]1O [Compound I-43, {(1R,2S,4R)-4-[(5-{[1-(3-bromo-4-chlorobenzyl)-1H-pyrrol-3-yl]carbonyl}pyrimidin-4-yl)amino]-2-hydroxycyclopentyl}methyl sulfamate] | < 10 | 98 | –
NS(=O)(=O)OC[C@H]1C[C@@H](Nc2ccncc2C(=O)c2ccn(Cc3cccc(OC(F)(F)F)c3)c2)[C@@H](F)[C@@H]1O [Compound I-132, [(1R,2R,3R,4R)-3-Fluoro-2-hydroxy-4-{[3-({1-[3-(trifluoromethoxy)benzyl]-1H-pyrrol-3-yl}carbonyl)pyridin-4-yl]amino}cyclopentyl]methyl sulfamate] | 10 to 100 | 78 | –
NS(=O)(=O)OC[C@H]1C[C@@H](Nc2ncncc2C(=O)c2ccn(CC3CC3c3ccccc3)c2)C[C@@H]1O (mixture of isomers) [Compound I-339, [(1R,2S,4R)-2-hydroxy-4-{[5-({1-[(1S,2S)-(2-phenylcyclopropyl)methyl]-1H-pyrrol-3-yl}carbonyl)pyrimidin-4-yl]amino}cyclopentyl]methyl sulfamate and [(1R,2S,4R)-2-hydroxy-4-{[5-({1-[(1R,2R)-(2-phenylcyclopropyl)methyl]-1H-pyrrol-3-yl}carbonyl)pyrimidin-4-yl]amino}cyclopentyl]methyl sulfamate] | < 10 | 93 | –
NS(=O)(=O)OC[C@H]1C[C@@H](Nc2ncncc2C(=O)c2ccn(CC3CC3c3ccccc3)c2)[C@@H](F)[C@@H]1O (single isomer, unassigned) [Compound I-359, [(1R,2R,3R,4R)-3-fluoro-2-hydroxy-4-{[5-({1-[(1R,2R)-(2-phenylcyclopropyl)methyl]-1H-pyrrol-3-yl}carbonyl)pyrimidin-4-yl]amino}cyclopentyl]methyl sulfamate or [(1R,2R,3R,4R)-3-fluoro-2-(hydroxy-4-{[5-({1-[(1S,2S)-(2-phenylcyclopropyl)methyl]-1H-pyrrol-3-yl}carbonyl)pyrimidin-4-yl]amino}cyclopentyl]methyl sulfamate] | 10 to 100 | – | 68
NS(=O)(=O)OC[C@H]1C[C@@H](Nc2ncncc2C(=O)c2ccn(Cc3ccc(F)cc3)n2)[C@H](O)[C@@H]1O [Compound I-106, {(1R,2R,3S,4R)-4-[(5-{[1-(4-fluorobenzyl)-1H-pyrazol-3-yl]carbonyl}pyrimidin-4-yl)amino]-2,3-dihydroxycyclopentyl}methyl sulfamate] | < 10 | > 99 | –
NS(=O)(=O)OC[C@H]1C[C@@H](Nc2ncncc2C(=O)c2ccn(Cc3csc4ccc(Cl)cc34)n2)[C@H](O)[C@@H]1O [Compound I-285, [(1R,2R,3S,4R)-4-{[5-({1-[(5-chloro-1-benzothiophen-3-yl)methyl]-1H-pyrazol-3-yl}carbonyl)pyrimidin-4-yl]amino}-2,3-dihydroxycyclopentyl]methyl sulfamate] | < 10 | 99 | –
NS(=O)(=O)OC[C@H]1C[C@@H](Nc2ncncc2C(=O)c2ccn(Cc3sccc3Cl)n2)C[C@@H]1O [Compound I-232, [(1R,2S,4R)-4-{[5-({1-[(3-chloro-2-thienyl)methyl]-1H-pyrazol-3-yl}carbonyl)pyrimidin-4-yl]amino}-2-hydroxycyclopentyl]methyl sulfamate] | < 10 | 97 | –
CC(C)Cn1ccc(C(=O)c2cncnc2N[C@@H]2C[C@H](COS(N)(=O)=O)[C@@H](O)[C@H]2O)n1 [Compound I-173, [(1R,2R,3S,4R)-2,3-dihydroxy-4-({5-[(1-isobutyl-1H-pyrazol-3-yl)carbonyl]pyrimidin-4-yl}amino)cyclopentyl]methyl sulfamate] | 10 to 100 | 71 | –
NS(=O)(=O)OC[C@H]1C[C@@H](Nc2ncncc2C(=O)c2ccn(Cc3c(F)c(F)c(F)c(F)c3F)n2)C[C@@H]1O [Compound I-202, {(1R,2S,4R)-2-hydroxy-4-[(5-{[1-(pentafluorobenzyl)-1H-pyrazol-3-yl]carbonyl}pyrimidin-4-yl)amino]cyclopentyl}methyl sulfamate] | 10 to 100 | 83 | –
NS(=O)(=O)OC[C@H]1C[C@@H](Nc2ncncc2C(=O)c2ccn(Cc3ccc(Cl)c(Cl)c3)c2)[C@@H](F)[C@@H]1O [Compound I-331, {(1R,2R,3R,4R)-4-[(5-{[1-(3,4-dichlorobenzyl)-1H-pyrrol-3-yl]carbonyl}pyrimidin-4-yl)amino]-3-fluoro-2-hydroxycyclopentyl}methyl sulfamate] | < 10 | 99 | –

From US9695154B2, “Heteroaryl inhibitors of sumo activating enzyme” (MILLENNIUM PHARMACEUTICALS, INC., priority 2013, dated 2017)
